Where “and” joins values, the source holds several entries; their conditions need not be identical. Equal entries are not always repeated.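 Results reflect a 48-hour exposure of cells in 96-well plates to compound at five concentrations. Abbreviation: GI50, concentration required for 50% inhibition of growth. TGI is the concentration that stops growth completely.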
Tests used:
Test in all cases: NCI tumour cell line growth inhibition, 48 h
M14 melanoma = test system: M14 melanoma
RXF 393 renal = test system: RXF 393 renal
TK-10 renal = test system: TK-10 renal
HT29 colon = test system: HT29 colon
DU-145 prostate = test system: DU-145 prostate
U251 CNS = test system: U251 CNS
SF-539 CNS = test system: SF-539 CNS
SF-268 CNS = test system: SF-268 CNS
SN12K1 renal = test system: SN12K1 renal
NCI-H460 lung = test system: NCI-H460 lung
SK-MEL-5 melanoma = test system: SK-MEL-5 melanoma
NCI/ADR-RES ovarian = test system: NCI/ADR-RES ovarian
XF 498 CNS = test system: XF 498 CNS
EKVX NSCLC = test system: EKVX NSCLC
LXFL 529 NSCLC = test system: LXFL 529 NSCLC
ACHN renal = test system: ACHN renal
CAKI-1 renal = test system: CAKI-1 renal
MDA-N = test system: MDA-N
NCI-H23 lung = test system: NCI-H23 lung
T-47D breast = test system: T-47D breast
HOP-18 NSCLC = test system: HOP-18 NSCLC
KM12 colon = test system: KM12 colon
OVCAR-4 ovarian = test system: OVCAR-4 ovarian
HOP-62 NSCLC = test system: HOP-62 NSCLC
OVCAR-5 ovarian = test system: OVCAR-5 ovarian
SK-OV-3 ovarian = test system: SK-OV-3 ovarian
SK-MEL-2 melanoma = test system: SK-MEL-2 melanoma
UACC-62 melanoma = test system: UACC-62 melanoma
NCI-H226 lung = test system: NCI-H226 lung
786-0 renal = test system: 786-0 renal
DMS 114 small cell lung = test system: DMS 114 small cell lung
HS 578T breast = test system: HS 578T breast
OVCAR-8 ovarian = test system: OVCAR-8 ovarian
HCC-2998 colon = test system: HCC-2998 colon
HOP-92 NSCLC = test system: HOP-92 NSCLC
UACC-257 melanoma = test system: UACC-257 melanoma
SK-MEL-28 melanoma = test system: SK-MEL-28 melanoma
CCRF-CEM leukemia = test system: CCRF-CEM leukemia
RXF-631 renal = test system: RXF-631 renal
HCT-15 colon = test system: HCT-15 colon
RPMI-8226 leukemia = test system: RPMI-8226 leukemia
KM20L2 colon = test system: KM20L2 colon
DLD-1 colon = test system: DLD-1 colon
PC-3 prostate = test system: PC-3 prostate
P388/ADR leukemia = test system: P388/ADR leukemia
M19-MEL melanoma = test system: M19-MEL melanoma
SF-295 CNS = test system: SF-295 CNS
SNB-19 CNS = test system: SNB-19 CNS
HL-60(TB) leukemia = test system: HL-60(TB) leukemia
MALME-3M melanoma = test system: MALME-3M melanoma
OVCAR-3 ovarian = test system: OVCAR-3 ovarian
MDA-MB-231 breast = test system: MDA-MB-231 breast
A498 renal = test system: A498 renal
SNB-75 CNS = test system: SNB-75 CNS
IGROV1 ovarian = test system: IGROV1 ovarian
SW-620 colon = test system: SW-620 colon
NCI-H522 lung = test system: NCI-H522 lung
SN12C renal = test system: SN12C renal
K-562 leukemia = test system: K-562 leukemia
DMS 273 small cell lung = test system: DMS 273 small cell lung
UO-31 renal = test system: UO-31 renal
COLO 205 colon = test system: COLO 205 colon
A549 NSCLC = test system: A549 NSCLC
MOLT-4 leukemia = test system: MOLT-4 leukemia
SNB-78 CNS = test system: SNB-78 CNS

CC[C@@]1(O)C[C@H](OC2CC(N(C)C)C(OC3CC(O)C(OC4CCC(=O)C(C)O4)C(C)O3)C(C)O2)c2c(cc3c(c2O)C(=O)c2c(O)cccc2C3=O)[C@H]1C(=O)OC (stereo partly drawn)
TGI (M14 melanoma): 149 nM
TGI (RXF 393 renal): 34.5 nM and 124 nM
TGI (TK-10 renal): 932 nM and 373 nM
TGI (HT29 colon): 903 nM and 318 nM
TGI (DU-145 prostate): 420 nM and 1730 nM
TGI (U251 CNS): 2110 nM and 2490 nM
TGI (SF-539 CNS): 91.7 nM and 216 nM
TGI (SF-268 CNS): 371 nM and 2790 nM
TGI (SN12K1 renal): 101 nM
TGI (NCI-H460 lung): 60 nM and 66.2 nM
TGI (SK-MEL-5 melanoma): 59.2 nM and 164 nM
TGI (NCI/ADR-RES ovarian): 696 nM and 878 nM
GI50 (XF 498 CNS): 6.81 nM and 28.2 nM and 23.6 nM
TGI (XF 498 CNS): 165 nM and 55.2 nM
TGI (EKVX NSCLC): 415 nM and 452 nM
GI50 (LXFL 529 NSCLC): 4.22 nM
TGI (LXFL 529 NSCLC): 1140 nM
TGI (ACHN renal): 579 nM
TGI (CAKI-1 renal): 179 nM and 373 nM
TGI (MDA-N): 48.5 nM and 131 nM
TGI (NCI-H23 lung): 120 nM and 125 nM
TGI (T-47D breast): 472 nM and 2630 nM
TGI (HOP-18 NSCLC): 854 nM and 2720 nM
TGI (KM12 colon): 519 nM and 560 nM
TGI (OVCAR-4 ovarian): 221 nM and 196 nM
TGI (HOP-62 NSCLC): 139 nM and 504 nM
TGI (OVCAR-5 ovarian): 220 nM and 457 nM
TGI (SK-OV-3 ovarian): 1310 nM and 5140 nM
TGI (SK-MEL-2 melanoma): 118 nM
TGI (UACC-62 melanoma): 49.1 nM and 115 nM
TGI (NCI-H226 lung): 94.8 nM and 130 nM
TGI (786-0 renal): 250 nM and 476 nM
TGI (DMS 114 small cell lung): 154 nM and 173 nM
TGI (HS 578T breast): 135 nM
TGI (OVCAR-8 ovarian): 956 nM and 404 nM
TGI (HCC-2998 colon): 74.6 nM and 351 nM
TGI (HOP-92 NSCLC): 129 nM and 161 nM
TGI (UACC-257 melanoma): 179 nM and 260 nM
TGI (SK-MEL-28 melanoma): 142 nM and 453 nM
GI50 (CCRF-CEM leukemia): 7.79 nM and 2.2 nM
TGI (CCRF-CEM leukemia): 700 nM and 2690 nM
TGI (RXF-631 renal): 66.4 nM
TGI (HCT-15 colon): 436 nM and 826 nM
GI50 (RPMI-8226 leukemia): 9.04 nM and 4.47 nM
TGI (RPMI-8226 leukemia): 261 nM and 743 nM
GI50 (KM20L2 colon): 5.95 nM and 2.75 nM
TGI (KM20L2 colon): 249 nM and 1070 nM
GI50 (DLD-1 colon): 9.12 nM and 7.88 nM
TGI (DLD-1 colon): 1150 nM and 1170 nM
TGI (PC-3 prostate): 132 nM and 62 nM
TGI (P388/ADR leukemia): 659 nM
TGI (M19-MEL melanoma): 144 nM and 279 nM
TGI (SF-295 CNS): 224 nM and 920 nM
TGI (SNB-19 CNS): 1980 nM and 2210 nM
GI50 (HL-60(TB) leukemia): 8.66 nM and 3.9 nM
TGI (HL-60(TB) leukemia): 61.3 nM and 177 nM
TGI (MALME-3M melanoma): 99.1 nM and 128 nM
TGI (OVCAR-3 ovarian): 600 nM and 169 nM
TGI (MDA-MB-231 breast): 198 nM
TGI (A498 renal): 53.9 nM and 59.9 nM

Oc1cc(O)c(Oc2cccc(O)c2O)c(O)c1
TGI (M14 melanoma): > 100000 nM
TGI (RXF 393 renal): > 100000 nM
TGI (TK-10 renal): > 100000 nM
TGI (SNB-75 CNS): > 100000 nM
TGI (HT29 colon): > 100000 nM
TGI (U251 CNS): > 100000 nM
TGI (SF-539 CNS): > 100000 nM
TGI (SF-268 CNS): > 100000 nM
TGI (NCI-H460 lung): > 100000 nM
TGI (SK-MEL-5 melanoma): 38700 nM
TGI (IGROV1 ovarian): > 100000 nM
TGI (XF 498 CNS): > 100000 nM
TGI (SW-620 colon): > 100000 nM
TGI (EKVX NSCLC): > 100000 nM
TGI (NCI-H522 lung): > 100000 nM
TGI (SN12C renal): > 100000 nM
TGI (LXFL 529 NSCLC): > 100000 nM
TGI (ACHN renal): > 100000 nM
TGI (CAKI-1 renal): > 100000 nM
TGI (NCI-H23 lung): > 100000 nM
TGI (K-562 leukemia): > 100000 nM
TGI (HOP-18 NSCLC): > 100000 nM
TGI (DMS 273 small cell lung): > 100000 nM
TGI (UO-31 renal): > 100000 nM
TGI (KM12 colon): > 100000 nM
TGI (OVCAR-4 ovarian): 31600 nM
TGI (HOP-62 NSCLC): > 100000 nM
TGI (OVCAR-5 ovarian): > 100000 nM
TGI (SK-OV-3 ovarian): > 100000 nM
TGI (SK-MEL-2 melanoma): > 100000 nM
TGI (UACC-62 melanoma): > 100000 nM
TGI (786-0 renal): > 100000 nM
TGI (COLO 205 colon): > 100000 nM
TGI (DMS 114 small cell lung): > 100000 nM
TGI (A549 NSCLC): > 100000 nM
TGI (OVCAR-8 ovarian): > 100000 nM
TGI (MOLT-4 leukemia): > 100000 nM
TGI (HCC-2998 colon): > 100000 nM
TGI (HOP-92 NSCLC): > 100000 nM
TGI (UACC-257 melanoma): > 100000 nM
TGI (SK-MEL-28 melanoma): > 100000 nM
TGI (CCRF-CEM leukemia): > 100000 nM
TGI (RXF-631 renal): > 100000 nM
TGI (HCT-15 colon): > 100000 nM
TGI (RPMI-8226 leukemia): > 100000 nM
TGI (SNB-78 CNS): > 100000 nM
TGI (M19-MEL melanoma): 45900 nM
TGI (SF-295 CNS): > 100000 nM
TGI (SNB-19 CNS): > 100000 nM
TGI (HL-60(TB) leukemia): > 100000 nM
TGI (MALME-3M melanoma): > 100000 nM
TGI (OVCAR-3 ovarian): > 100000 nM
TGI (A498 renal): > 100000 nM

Reference: PubChem BioAssay (NCI)
